Format in all cases: biochemical
The target of one test is T1, RET (Homo sapiens, UniProt P07949).
T1 construct: purchased Upstate 14-570MG
The test is described as follows: Inhibition of RET kinase activity, recombinant RET method (Kinase-Glo). Conditions: RET 2 μg/ml, poly-EY4 substrate, 20 μM ATP, two hours at 30° C. The procedure, abridged: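 Recombinant RET at 2 μg/ml in 20 mM MOPS/NaOH pH 7.0, 1 mM EDTA, 5% glycerol, 0.01% Brij35, 0.1% 2-mercaptoethanol, 1 mg/ml BSA; compounds 10 nM–30 μM final.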

For the next test, the target named is ALK (Homo sapiens, UniProt Q9UM73). The test is described as follows: Inhibition of kinase ALK (PLCγ1-GST substrate, anti-phosphotyrosine ELISA). Conditions: ALK 180 ng/ml, 250 μM ATP, 30 minutes at 30° C. As for the experimental part: Incubation is carried out for 30 minutes at 30° C. with agitation.
Sequence of ALK (Q9UM73 19-1620, species assumed): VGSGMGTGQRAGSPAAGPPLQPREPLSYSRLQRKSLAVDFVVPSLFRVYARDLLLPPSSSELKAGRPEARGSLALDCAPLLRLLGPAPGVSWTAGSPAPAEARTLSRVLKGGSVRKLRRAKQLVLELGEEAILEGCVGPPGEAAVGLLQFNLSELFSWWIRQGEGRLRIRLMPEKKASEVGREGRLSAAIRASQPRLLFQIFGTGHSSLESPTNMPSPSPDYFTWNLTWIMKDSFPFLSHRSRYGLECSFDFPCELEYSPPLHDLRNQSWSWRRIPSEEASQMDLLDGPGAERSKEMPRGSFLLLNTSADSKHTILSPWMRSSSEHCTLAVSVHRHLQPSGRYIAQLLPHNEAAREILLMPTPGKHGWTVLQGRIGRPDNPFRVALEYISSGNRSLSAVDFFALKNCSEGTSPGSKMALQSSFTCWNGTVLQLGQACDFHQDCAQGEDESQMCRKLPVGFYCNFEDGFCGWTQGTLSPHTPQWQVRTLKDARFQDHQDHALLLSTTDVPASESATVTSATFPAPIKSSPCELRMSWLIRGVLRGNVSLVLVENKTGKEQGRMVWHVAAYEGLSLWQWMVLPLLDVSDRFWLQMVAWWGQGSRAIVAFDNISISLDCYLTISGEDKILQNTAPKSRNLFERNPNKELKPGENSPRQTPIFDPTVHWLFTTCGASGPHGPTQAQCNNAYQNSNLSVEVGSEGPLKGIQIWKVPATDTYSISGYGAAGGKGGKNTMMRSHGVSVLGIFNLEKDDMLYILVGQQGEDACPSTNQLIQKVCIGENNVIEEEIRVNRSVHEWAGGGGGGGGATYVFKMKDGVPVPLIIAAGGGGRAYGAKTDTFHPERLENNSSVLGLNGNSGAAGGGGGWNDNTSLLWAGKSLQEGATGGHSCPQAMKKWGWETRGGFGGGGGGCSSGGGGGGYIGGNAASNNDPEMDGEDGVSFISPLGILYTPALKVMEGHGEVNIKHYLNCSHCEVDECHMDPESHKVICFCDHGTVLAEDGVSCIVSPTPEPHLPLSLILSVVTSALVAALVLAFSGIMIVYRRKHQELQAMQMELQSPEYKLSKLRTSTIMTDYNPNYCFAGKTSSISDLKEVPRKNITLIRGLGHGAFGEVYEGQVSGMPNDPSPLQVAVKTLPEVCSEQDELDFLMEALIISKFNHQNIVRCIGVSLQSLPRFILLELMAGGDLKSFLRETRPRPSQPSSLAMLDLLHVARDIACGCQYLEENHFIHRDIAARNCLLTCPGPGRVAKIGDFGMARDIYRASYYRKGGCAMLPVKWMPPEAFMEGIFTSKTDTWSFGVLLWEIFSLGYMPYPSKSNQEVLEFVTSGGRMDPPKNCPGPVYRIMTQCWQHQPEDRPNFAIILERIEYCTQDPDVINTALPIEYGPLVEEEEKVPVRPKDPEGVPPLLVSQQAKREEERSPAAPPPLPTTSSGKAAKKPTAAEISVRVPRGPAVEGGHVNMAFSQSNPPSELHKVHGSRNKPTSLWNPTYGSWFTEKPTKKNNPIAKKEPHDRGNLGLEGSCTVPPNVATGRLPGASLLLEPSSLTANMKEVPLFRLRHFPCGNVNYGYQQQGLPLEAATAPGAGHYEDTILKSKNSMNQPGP
The signal is read in luminescent mode using a luminometer.

The target in the next test is T2, PIM-1 (Homo sapiens, UniProt P11309).
T2 construct: purchased Upstate 14-573
T2 sequence (P11309 whole entry): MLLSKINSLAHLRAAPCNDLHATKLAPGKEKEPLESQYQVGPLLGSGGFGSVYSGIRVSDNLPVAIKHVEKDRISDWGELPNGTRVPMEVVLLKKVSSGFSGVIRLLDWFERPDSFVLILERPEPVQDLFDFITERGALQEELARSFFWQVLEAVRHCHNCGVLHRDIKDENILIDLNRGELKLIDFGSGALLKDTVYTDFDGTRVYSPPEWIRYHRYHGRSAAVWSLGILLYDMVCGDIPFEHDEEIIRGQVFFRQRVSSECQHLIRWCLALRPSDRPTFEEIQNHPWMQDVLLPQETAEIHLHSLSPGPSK
The test is described as follows: Inhibition of kinase PIM-1 (Kinase-Glo). The settings on record: PIM-1 0.625 μg/ml, 10 μM ATP, forty minutes at 30° C. The procedure, abridged:
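PIM-1 (0.625 μg/ml) in MOPS/NaOH pH 7 with Mg acetate was run with 70 μM S6 kinase/Rsk2 peptide and 10 μM ATP, with compound at 10 nM–30 μM final.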

The target of the next test is T3, TrkA (Homo sapiens, UniProt P04629).
T3 construct: purchased Upstate 14-571
T3 sequence (P04629 33-796): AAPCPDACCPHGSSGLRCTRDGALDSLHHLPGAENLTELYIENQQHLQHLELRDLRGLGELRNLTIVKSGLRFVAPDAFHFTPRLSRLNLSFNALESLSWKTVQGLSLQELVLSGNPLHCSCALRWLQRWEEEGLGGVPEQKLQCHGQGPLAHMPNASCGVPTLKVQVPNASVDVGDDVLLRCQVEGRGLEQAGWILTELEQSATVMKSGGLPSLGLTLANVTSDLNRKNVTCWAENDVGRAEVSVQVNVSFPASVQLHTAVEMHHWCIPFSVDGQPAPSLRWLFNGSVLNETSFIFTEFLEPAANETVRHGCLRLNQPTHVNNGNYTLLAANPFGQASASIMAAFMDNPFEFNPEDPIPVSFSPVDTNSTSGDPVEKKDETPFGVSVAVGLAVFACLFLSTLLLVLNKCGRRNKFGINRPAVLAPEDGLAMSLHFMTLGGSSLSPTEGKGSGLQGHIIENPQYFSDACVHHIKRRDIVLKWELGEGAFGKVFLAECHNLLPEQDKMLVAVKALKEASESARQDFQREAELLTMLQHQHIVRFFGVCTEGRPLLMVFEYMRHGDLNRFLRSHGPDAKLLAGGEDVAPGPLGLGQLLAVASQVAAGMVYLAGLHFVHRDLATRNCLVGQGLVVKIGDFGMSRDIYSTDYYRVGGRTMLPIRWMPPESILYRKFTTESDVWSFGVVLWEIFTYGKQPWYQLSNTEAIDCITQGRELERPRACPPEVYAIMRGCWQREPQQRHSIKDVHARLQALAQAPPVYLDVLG
The test is described as follows: Inhibition of kinase TrkA (Kinase-Glo). Conditions: TrkA 4 μg/ml, 30 μM ATP, two hours at 30° C. As for the experimental part:
Protein TrkA (Upstate 14-571; batch #25634U) is incubated at a concentration of 4 μg/ml in a buffer containing 8 mM of MOPS/NaOH pH7, 0.2 mM EDTA, 40 mM MgAc (Sigma #229768), 1 mM DTT (Fluka #43816), NaOV 1 mM, 0.01% Triton Tx100, in the presence of 1 mg/ml of peptide substrate poly-EY (Upstate #P0275), and 30 μM of ATP.
The dilution buffer for TrkA is as follows: 20 mM MOPS/NaOH pH7, 1 mM EDTA, 5% glycerol, 0.01% Brij35, 0.1% 2-mercapto, 1 mg/ml BSA.
(§1) The compound to be tested is first added to the enzyme to give a reaction volume of 50 μl. The dilution of the compounds of the invention is distributed so as to obtain a scale of final concentrations between 10 nM and 30 μM.
(§2) After incubation of the reaction mixture for two hours at 30° C., the level of ATP that remains is assayed using the Kinase-Glo Luminescent Kinase Assay (Promega #V6712) according to the conditions recommended by the supplier. The luminescence induced is read in a plate reader (Envision-Perkin Elmer).

The target in the next test is T4, TrkB (Homo sapiens, UniProt Q16620).
T4 construct: purchased Upstate 14-507
T4 sequence (Q16620 32-822): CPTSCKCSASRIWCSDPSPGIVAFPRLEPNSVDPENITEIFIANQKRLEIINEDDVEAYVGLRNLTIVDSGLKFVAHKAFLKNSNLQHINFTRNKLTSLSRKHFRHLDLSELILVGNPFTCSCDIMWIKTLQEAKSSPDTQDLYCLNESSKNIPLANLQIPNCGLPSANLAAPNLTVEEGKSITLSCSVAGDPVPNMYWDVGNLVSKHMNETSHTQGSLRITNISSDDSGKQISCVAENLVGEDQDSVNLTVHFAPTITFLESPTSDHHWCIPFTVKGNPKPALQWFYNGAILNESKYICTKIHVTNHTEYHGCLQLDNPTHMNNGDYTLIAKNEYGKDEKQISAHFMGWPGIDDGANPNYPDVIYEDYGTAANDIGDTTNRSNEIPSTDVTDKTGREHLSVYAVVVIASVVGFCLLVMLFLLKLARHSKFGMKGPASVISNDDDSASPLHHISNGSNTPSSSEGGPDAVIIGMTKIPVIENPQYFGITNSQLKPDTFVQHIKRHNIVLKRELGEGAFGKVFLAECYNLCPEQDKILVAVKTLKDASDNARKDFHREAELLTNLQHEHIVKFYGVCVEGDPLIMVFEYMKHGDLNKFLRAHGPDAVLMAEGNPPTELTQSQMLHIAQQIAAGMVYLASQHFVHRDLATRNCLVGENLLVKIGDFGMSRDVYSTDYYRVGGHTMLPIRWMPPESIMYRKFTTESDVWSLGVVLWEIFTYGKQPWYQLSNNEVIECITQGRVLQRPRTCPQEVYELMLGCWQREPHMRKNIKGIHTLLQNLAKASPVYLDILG
The test is described as follows: Inhibition of kinase TrkB (Kinase-Glo). Conditions: TrkB 4 μg/ml, 40 μM ATP, two hours at 30° C. As for the experimental part:
Protein TrkB (Upstate 14-507; batch #25578U) is incubated at a concentration of 4 μg/ml in a buffer containing 8 mM of MOPS/NaOH pH7, 0.2 mM EDTA, 40 mM MgAc (Sigma #229768), 1 mM DTT (Fluka #43816), NaOV 1 mM, 25 mM 2-glycerolphosphate (Sigma #G9891), in the presence of 2.5 mg/ml of peptide substrate poly-EY (Upstate #P0275), and 40 μM of ATP.
The dilution buffer for TrkB is as follows: 20 mM MOPS/NaOH pH7, 1 mM EDTA, 5% glycerol, 0.01% Brij35, 0.1% 2-mercapto, 1 mg/ml BSA.
as §1, §2

Counter-ions that a name gives are not always drawn. Where only a bound is given, the exact number is not on record here.

T1 sequence (P07949 29-1114): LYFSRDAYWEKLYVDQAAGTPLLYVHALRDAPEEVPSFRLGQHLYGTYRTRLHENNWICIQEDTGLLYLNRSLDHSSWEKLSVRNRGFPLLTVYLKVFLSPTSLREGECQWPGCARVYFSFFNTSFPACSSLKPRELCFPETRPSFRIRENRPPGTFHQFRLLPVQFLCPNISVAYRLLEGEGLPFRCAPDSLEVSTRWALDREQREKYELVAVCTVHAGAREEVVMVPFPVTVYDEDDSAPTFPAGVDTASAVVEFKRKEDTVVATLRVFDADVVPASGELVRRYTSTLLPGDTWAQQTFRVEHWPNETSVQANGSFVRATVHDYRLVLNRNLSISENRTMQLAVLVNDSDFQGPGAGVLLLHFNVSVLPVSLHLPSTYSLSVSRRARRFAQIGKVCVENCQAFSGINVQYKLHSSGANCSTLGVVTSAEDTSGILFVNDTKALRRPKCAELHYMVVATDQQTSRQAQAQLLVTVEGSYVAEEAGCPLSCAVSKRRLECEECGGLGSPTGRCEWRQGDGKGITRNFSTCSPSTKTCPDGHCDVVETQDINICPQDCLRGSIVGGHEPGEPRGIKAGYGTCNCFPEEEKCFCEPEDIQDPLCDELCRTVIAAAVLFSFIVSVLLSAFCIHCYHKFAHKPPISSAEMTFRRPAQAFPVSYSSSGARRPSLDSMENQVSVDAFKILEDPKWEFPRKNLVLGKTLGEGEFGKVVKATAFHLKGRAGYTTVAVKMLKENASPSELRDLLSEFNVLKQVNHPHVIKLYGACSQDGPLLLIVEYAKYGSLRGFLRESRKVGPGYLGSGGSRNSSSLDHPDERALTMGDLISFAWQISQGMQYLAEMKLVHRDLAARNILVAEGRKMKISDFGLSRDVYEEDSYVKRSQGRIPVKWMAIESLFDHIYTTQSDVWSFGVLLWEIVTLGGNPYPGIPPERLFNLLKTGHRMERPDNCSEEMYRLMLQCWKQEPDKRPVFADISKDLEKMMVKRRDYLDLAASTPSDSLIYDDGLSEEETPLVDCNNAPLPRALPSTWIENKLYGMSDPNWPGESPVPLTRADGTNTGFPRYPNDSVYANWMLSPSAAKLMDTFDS

For the compound `CCOC(=O)c1c[nH]c2c(=O)[nH]c3ccc(S(=O)(=O)N4CC5CNCC5C4)cc3c12` (stereo not drawn) [Compound 93, 8-(Octahydro-pyrrolo[3,4-c]pyrrole-2-sulfonyl)-4-oxo-4,5-dihydro-3H-pyrrolo[2,3-c]quinoline-1-ethyl carboxylate], the figures for the IC50 at RET, against ALK and at PIM-1 were 100 to 1000 nM, 100 to 1000 nM and 1000 to 10000 nM, respectively.
For `CCCOC(=O)c1c[nH]c2c(=O)[nH]c3ccc(S(=O)(=O)N(C[C@@H]4CCCN4C)C4CC4)cc3c12` [Compound 145, (S)-8-[Cyclopropyl-(1-methyl-pyrrolidin-2-ylmethyl)sulfamoyl]-4-oxo-4,5-dihydro-3H-pyrrolo[2,3-c]quinoline-1-propyl carboxylate], the 50% inhibitory concentration (IC50) was in the range of 100 to 1000 nM on RET and 1000 to 10000 nM on ALK.
Take `COC(=O)c1c[nH]c2c(=O)[nH]c3ccc(S(=O)(=O)NC4CCNCC4)cc3c12` [Compound 113, 4-Oxo-8-(piperidin-4-ylsulfamoyl)-4,5-dihydro-3H-pyrrolo[2,3-c]quinoline-1-methyl carboxylate]: the concentration for half-maximal inhibition (IC50) lay in the range of 100 to 1000 nM at RET, 1000 to 10000 nM on ALK and 1000 to 10000 nM against PIM-1.
For the compound `COC(=O)c1c[nH]c2c(=O)[nH]c3ccc(S(=O)(=O)NC4CCCNC4)cc3c12` (stereo not drawn) [Compound 112, 4-Oxo-8-(piperidin-3-ylsulfamoyl)-4,5-dihydro-3H-pyrrolo[2,3-c]quinoline-1-methyl carboxylate], the IC50 at RET was in the range of 1000 to 10000 nM; against ALK it was 100 to 1000 nM; on PIM-1 it was 1000 to 10000 nM.
`CCCOC(=O)c1c[nH]c2c(=O)[nH]c3ccc(S(=O)(=O)N(C)CC(N)=O)cc3c12` [Compound 177, 8-(Carbamoylmethyl-methyl-sulfamoyl)-4-oxo-4,5-dihydro-3H-pyrrolo[2,3-c]quinoline-1-propyl carboxylate]: the IC50 at RET and against ALK was 100 to 1000 nM each time.
As for `CCOC(=O)c1c[nH]c2c(=O)[nH]c3ccc(-c4csc(Nc5ccccc5)n4)cc3c12` [Compound 271, 4-Oxo-8-(2-phenylamino-thiazol-4-yl)-4,5-dihydro-3H-pyrrolo[2,3-c]quinoline-1-ethyl carboxylate], the half-maximal inhibitory concentration (IC50) at RET lay within 100 to 1000 nM; against ALK, 100 to 1000 nM; on PIM-1 it was 10000 to 100000 nM; on TrkA, 1000 to 10000 nM; against TrkB, 1000 to 10000 nM.
`C#CCN(C[C@@H]1CCCN1)S(=O)(=O)c1ccc2[nH]c(=O)c3[nH]cc(C(=O)OCCC)c3c2c1` [Compound 150, (S)-4-Oxo-8-(prop-2-ynyl-pyrrolidin-2-ylmethyl-sulfamoyl)-4,5-dihydro-3H-pyrrolo[2,3-c]quinoline-1-propyl carboxylate hydrochloride]: the half-maximal inhibitory concentration (IC50) on RET was < 100 nM; on ALK, 100 to 1000 nM.
The matching figures for `CCOC(=O)c1c[nH]c2c(=O)[nH]c3ccc(C(=O)N(C[C@@H]4CCCN4)C4CC4)cc3c12` [Compound 219, (S)-8-(cyclopropyl-pyrrolidin-2-ylmethyl-carbamoyl), 3-oxo-4,5-dihydro-3H-pyrrolo[2,3-c]quinoline-1-ethyl carboxylate hydrochloride]: 1000 to 10000 nM and 1000 to 10000 nM.
The matching figures for `CCOC(=O)c1c[nH]c2c(=O)[nH]c3ccc(S(=O)(=O)NC4CC4)cc3c12` [Compound 123, 8-Cyclopropylsulfamoyl-4-oxo-4,5-dihydro-3H-pyrrolo[2,3-c]quinoline-1-ethyl carboxylate]: 100 to 1000 nM and 1000 to 10000 nM.
The matching figures for `CCCOC(=O)c1c[nH]c2c(=O)[nH]c3ccc(S(=O)(=O)N(CC(C)(C)NC)C4CC4)cc3c12` [Compound 141, 8-[Cyclopropyl-(2-methyl-2-methylamino-propyl)-sulfamoyl]-4-oxo-4,5-dihydro-3H-pyrrolo[2,3-c]quinoline-1-propyl carboxylate hydrochloride]: 100 to 1000 nM and 100 to 1000 nM.
Turning to `CCOC(=O)c1c[nH]c2c(=O)[nH]c3ccc(S(=O)(=O)NCCCN(C)C)cc3c12` [Compound 32, 8-(3-Dimethylamino-propylsulfamoyl)-4-oxo-4,5-dihydro-3H-pyrrolo[2,3-c]quinoline-1-ethyl carboxylate], the half-maximal inhibitory concentration (IC50) lay within 100 to 1000 nM on RET, 10000 to 100000 nM against ALK and 10000 to 100000 nM against PIM-1.
As for `CCOC(=O)c1c[nH]c2c(=O)[nH]c3ccc(S(=O)(=O)NCCCCN)cc3c12` [Compound 33, 8-(4-Amino-butylsulfamoyl)-4-oxo-4,5-dihydro-3H-pyrrolo[2,3-c]quinoline-1-ethyl carboxylate], the IC50 on RET was in the range of 100 to 1000 nM; at ALK it was 1000 to 10000 nM; on PIM-1, 10000 to 100000 nM.
In the case of `CCCOC(=O)c1c[nH]c2c(=O)[nH]c3ccc(S(=O)(=O)N(C[C@H](C)N)C4CC4)cc3c12` [Compound 153, (S)-8-[(2-Amino-propyl)-cyclopropyl-sulfamoyl]-4-oxo-4,5-dihydro-3H-pyrrolo[2,3-c]quinoline-1-propyl carboxylate hydrochloride], the results for the half-maximal inhibitory concentration (IC50) at RET and against ALK were < 100 nM and 100 to 1000 nM, respectively.
Taken in the same sequence, the figures for `CCCOC(=O)c1c[nH]c2c(=O)[nH]c3ccc(S(=O)(=O)N(C[C@@H]4CCCN4)C4CC4)cc3c12` [Compound 144, (S)-8-(Cyclopropyl-pyrrolidin-2-ylmethyl-sulfamoyl)-4-oxo-4,5-dihydro-3H-pyrrolo[2,3-c]quinoline-1-propyl carboxylate hydrochloride] were < 100 nM and 100 to 1000 nM.
`CCOC(=O)c1c[nH]c2c(=O)[nH]c3ccc(S(=O)(=O)NC4CCNCC4)cc3c12` [Compound 91, 4-oxo-8-(piperidin-4-ylsulfamoyl)-4,5-dihydro-3H-pyrrolo[2,3-c]quinoline-1-ethyl carboxylate]: the half-inhibitory concentration (IC50) on RET lay in the range of 100 to 1000 nM; against ALK, 100 to 1000 nM; at PIM-1, 1000 to 10000 nM.
Turning to `CCCOC(=O)c1c[nH]c2c(=O)[nH]c3ccc(S(=O)(=O)N(C[C@@H]4CCCN4)C(C)C)cc3c12` [Compound 149, (S)-8-(Isopropyl-pyrrolidin-2-ylmethyl-sulfamoyl)-4-oxo-4,5-dihydro-3H-pyrrolo[2,3-c]quinoline-1-propyl carboxylate hydrochloride], the IC50 is < 100 nM at RET and 100 to 1000 nM against ALK.
`CCCOC(=O)c1c[nH]c2c(=O)[nH]c3ccc(S(=O)(=O)N(C[C@@H](C)N)C4CC4)cc3c12` [Compound 155, (R)-8-[(2-Amino-propyl)-cyclopropyl-sulfamoyl]-4-oxo-4,5-dihydro-3H-pyrrolo[2,3-c]quinoline-1-propyl carboxylate hydrochloride]: the IC50 at RET was < 100 nM; against ALK it was 100 to 1000 nM.
`CCOC(=O)c1c[nH]c2c(=O)[nH]c3ccc(S(=O)(=O)NC[C@H]4CCNC4)cc3c12` [Compound 97, (S)-4-Oxo-8-[(pyrrolidin-3-methyl)-sulfamoyl]-4,5-dihydro-3H-pyrrolo[2,3-c]quinoline-1-ethyl carboxylate]: the IC50 at RET was in the range of 100 to 1000 nM; against ALK it was 100 to 1000 nM; against PIM-1 it was 10000 to 100000 nM.
With `CCCOC(=O)c1c[nH]c2c(=O)[nH]c3ccc(S(=O)(=O)N(C)C4CN(C(c5ccccc5)c5ccccc5)C4)cc3c12` [Compound 130, 8-[(1-Benzhydryl-azetidin-3-yl)-methyl-sulfamoyl]-4-oxo-4,5-dihydro-3H-pyrrolo[2,3-c]quinoline-1-propyl carboxylate], the half-inhibitory concentration (IC50) at RET and on ALK was 100 to 1000 nM each time.

The values above are taken from patent publication US8426437B2, “Pyrroloquinoline derivatives and their use as protein kinases inhibitors” (Pierre Fabre Medicament, priority 2005, dated 2013).
